{
  "source": "patent US20120035177A1",
  "about": "“TABLET FORMULATION FOR P38 INHIBITOR AND METHOD” (Bristol-Myers Squibb Company, priority 2009, published 2012)",
  "test": "Physical stability upon storage",
  "format": "physicochemical",
  "conditions": "drug substance; room temperature without need for refrigeration",
  "data": [
    {"smiles": "CCCNC(=O)c1cn2c(c1C)C(Nc1cc(C(=O)NC3CC3)ccc1C)=NCN2.Cl", "note": "[p38 inhibitor]", "values": [
      {"measurement": "physical stability upon storage", "result": "good physical stability"}
    ]}
  ]
}
